Drawing on patent US20260060961A1, “SUBSTITUTED HETEROCYCLES AS RAS INHIBITORS” (Jazz Pharmaceuticals Ireland Limited, priority 2022, published 2026), this text covers IC50 for 25 molecules.

pIC50: −log10 of the molar value. A value given as a limit tells only on which side of the number the result lay.

For the experiment, the target named is Recombinant human KRAS protein containing the G12C amino acid substitution (Homo sapiens (Human), UniProt P01116, G12C). Description: HTRF nucleotide exchange assay, KRAS G12C. The experiment is classed as biochemical. The following applies: 180 minute incubation with compound at room temperature; at least two independent replicates; read-out: KRAS G12C HTRF NEA IC50. The method, then: The capacity of compounds to bind KRAS G12C and KRAS wildtype was quantified using a HTRF nucleotide exchange assay. Recombinant human KRAS protein (5 nM; aa1-188 KRAS WT or KRAS containing the G12C amino acid substitution, an N-terminal 6×His-tag and leader sequence), and 2 nM Europium-labeled anti-6×His antibody were mixed in assay buffer (10 mM HEPES pH7.3, 75 mM NaCl, 5 mM MgCl2, 0.05% BSA, 0.0025% NP-40 and 100 mM KF) with various concentrations of compound in a 384-well plate and a volume of 5 μL. After a 180 minute incubation at room temperature, 5 μl of 200 nM EDA-GTP-DY647P1 diluted in assay buffer was added to the plate. Following 30-minute incubation at room temperature, time-resolved fluorescence was measured on a PerkinElmer Envision plate reader. DMSO (0.3%) and unlabeled GDP (1 μM) or equivalent tool compound were used to generate the Max and Min assay signals, respectively. Data was analysed using a four-parameter logistic model to calculate IC50 values, with at least two independent replicates were performed for each compound.
Sequence of Recombinant human KRAS protein containing the G12C amino acid substitution (P01116 other isoform, or with tags, fused parts or gaps G12C): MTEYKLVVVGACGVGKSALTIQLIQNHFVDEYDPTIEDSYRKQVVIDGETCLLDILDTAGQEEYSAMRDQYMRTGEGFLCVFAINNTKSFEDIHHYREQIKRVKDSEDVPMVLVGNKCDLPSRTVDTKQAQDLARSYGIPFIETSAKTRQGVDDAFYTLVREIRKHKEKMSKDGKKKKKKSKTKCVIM
For `C=CC(=O)N1CC2(CC(c3nc(-c4ccc5c(cnn5C)c4)c(-c4c(C)ccc5[nH]ncc45)n3C)C2)C1` [Example 1, 1-[6-[1-methyl-4-(1-methylindazol-5-yl)-5-(5-methyl-1H-indazol-4-yl)imidazol-2-yl]-2-azaspiro[3.3]heptan-2-yl]prop-2-en-1-one], the pIC50 (in general, −log10 of the IC50, conventionally taken in molar units) was not below 6.00.

Regarding `C=CC(=O)N1CC2(CC(c3nc(-c4ccccc4)c(-c4c(C)ccc5[nH]ncc45)n3C)C2)C1` [Example 2, 1-[6-[1-methyl-5-(5-methyl-1H-indazol-4-yl)-4-phenyl-imidazol-2-yl]-2-azaspiro[3.3]heptan-2-yl]prop-2-en-1-one], the negative-log IC50 (pIC50) is 5.00 to 6.00.

`C=CC(=O)N1CC2(CC(c3nc(-c4cccnc4)c(-c4c(C)ccc5[nH]ncc45)n3C)C2)C1` [Example 3, 1-[6-[1-methyl-5-(5-methyl-1H-indazol-4-yl)-4-(3-pyridyl)imidazol-2-yl]-2-azaspiro[3.3]heptan-2-yl]prop-2-en-1-one]: the negative logarithm of the IC50 (pIC50) was not above 5.00.

`C=CC(=O)N1CC2(CC(c3nc(-c4ccc(OC)cc4F)c(-c4c(C)ccc5[nH]ncc45)n3C)C2)C1` [Example 4, 1-[6-[4-(2-fluoro-4-methoxy-phenyl)-1-methyl-5-(5-methyl-1H-indazol-4-yl)imidazol-2-yl]-2-azaspiro[3.3]heptan-2-yl]prop-2-en-1-one]: the pIC50 is 5.00 to 6.00.

Regarding `C=CC(=O)N1CC2(CC(c3nc(-c4ccc(N5CCOCC5)cc4)c(-c4c(C)ccc5[nH]ncc45)n3C)C2)C1` [Example 5, 1-[6-[1-methyl-5-(5-methyl-1H-indazol-4-yl)-4-(4-morpholinophenyl)imidazol-2-yl]-2-azaspiro[3.3]heptan-2-yl]prop-2-en-1-one], the pIC50 was not below 6.00.

For `C=CC(=O)N1CC2(CC(c3nc(-c4cccc(N5CCOCC5)c4)c(-c4c(C)ccc5[nH]ncc45)n3C)C2)C1` [Example 6, 1-[6-[1-methyl-5-(5-methyl-1H-indazol-4-yl)-4-(3-morpholinophenyl)imidazol-2-yl]-2-azaspiro[3.3]heptan-2-yl]prop-2-en-1-one], the pIC50 was 5.00 to 6.00.

As for `C=CC(=O)N1CC2(CC(c3nc(-c4ccc5cnn(C)c5c4)c(-c4c(C)ccc5[nH]ncc45)n3C)C2)C1` [Example 7, 1-[6-[1-methyl-4-(1-methylindazol-6-yl)-5-(5-methyl-1H-indazol-4-yl)imidazol-2-yl]-2-azaspiro[3.3]heptan-2-yl]prop-2-en-1-one], the negative-log IC50 (pIC50) is 5.00 to 6.00.

On to `C=CC(=O)N1CC2(CC(c3nc(-c4ccc(-n5cnc(C6CC6)c5)cc4)c(-c4c(C)ccc5[nH]ncc45)n3C)C2)C1` [Example 8, 1-[6-[4-[4-(4-cyclopropylimidazol-1-yl)phenyl]-1-methyl-5-(5-methyl-1H-indazol-4-yl)imidazol-2-yl]-2-azaspiro[3.3]heptan-2-yl]prop-2-en-1-one], for which the pIC50 was 5.00 to 6.00.

`C=CC(=O)N1CC2(CC(c3nc(-c4ccc5c(c4)nc(C)n5C)c(-c4c(C)ccc5[nH]ncc45)n3C)C2)C1` [Example 9, 1-[6-[4-(1,2-dimethylbenzimidazol-5-yl)-1-methyl-5-(5-methyl-1H-indazol-4-yl)imidazol-2-yl]-2-azaspiro[3.3]heptan-2-yl]prop-2-en-1-one]: the pIC50 was 5.00 to 6.00.

Turning to `C=CC(=O)N1CC2(CC(c3nc(-c4cnn(CCN5CCOCC5)c4)c(-c4c(C)ccc5[nH]ncc45)n3C)C2)C1` [Example 10, 1-[6-[1-methyl-5-(5-methyl-1H-indazol-4-yl)-4-[1-(2-morpholinoethyl)pyrazol-4-yl]imidazol-2-yl]-2-azaspiro[3.3]heptan-2-yl]prop-2-en-1-one], the pIC50 is not above 5.00.

`C=CC(=O)N1CC2(CC(c3nc(-c4ccc5c(cnn5C)c4C)c(-c4c(C)ccc5[nH]ncc45)n3C)C2)C1` [Example 11, 1-[6-[4-(1,4-dimethylindazol-5-yl)-1-methyl-5-(5-methyl-1H-indazol-4-yl)imidazol-2-yl]-2-azaspiro[3.3]heptan-2-yl]prop-2-en-1-one]: the pIC50 is 5.00 to 6.00.

Turning to `C=CC(=O)N1CC2(CC(c3nc(-c4cn(C)nc4C)c(-c4c(C)ccc5[nH]ncc45)n3C)C2)C1` [Example 12, 1-[6-[4-(1,3-dimethylpyrazol-4-yl)-1-methyl-5-(5-methyl-1H-indazol-4-yl)imidazol-2-yl]-2-azaspiro[3.3]heptan-2-yl]prop-2-en-1-one], the pIC50 is not above 5.00.

With `C=CC(=O)N1CC2(CC(c3nc(-c4cnn(CC)c4)c(-c4c(C)ccc5[nH]ncc45)n3C)C2)C1` [Example 13, 1-[6-[4-(1-ethylpyrazol-4-yl)-1-methyl-5-(5-methyl-1H-indazol-4-yl)imidazol-2-yl]-2-azaspiro[3.3]heptan-2-yl]prop-2-en-1-one], the pIC50 is not above 5.00.

`C=CC(=O)N1CC2(CC(c3nc(-c4ccc5nn(C)cc5c4)c(-c4c(C)ccc5[nH]ncc45)n3C)C2)C1` [Example 14, 1-[6-[1-methyl-4-(2-methylindazol-5-yl)-5-(5-methyl-1H-indazol-4-yl)imidazol-2-yl]-2-azaspiro[3.3]heptan-2-yl]prop-2-en-1-one]: the negative-log IC50 (pIC50) was not below 6.00.

In the case of `C=CC(=O)N1CC2(CC(c3nc(-c4cnn(CCOC)c4)c(-c4c(C)ccc5[nH]ncc45)n3C)C2)C1` [Example 15, 1-[6-[4-[1-(2-methoxyethyl)pyrazol-4-yl]-1-methyl-5-(5-methyl-1H-indazol-4-yl)imidazol-2-yl]-2-azaspiro[3.3]heptan-2-yl]prop-2-en-1-one], the pIC50 was not above 5.00.

Take `C=CC(=O)N1CC2(CC(c3nc(-c4ccc5c(c4)c(C)nn5C)c(-c4c(C)ccc5[nH]ncc45)n3C)C2)C1` [Example 16, 1-[6-[4-(1,3-dimethylindazol-5-yl)-1-methyl-5-(5-methyl-1H-indazol-4-yl)imidazol-2-yl]-2-azaspiro[3.3]heptan-2-yl]prop-2-en-1-one]: the pIC50 was 5.00 to 6.00.

On to `C=CC(=O)N1CC2(CC(c3nc(-c4ccc5ocnc5c4)c(-c4c(C)ccc5[nH]ncc45)n3C)C2)C1` [Example 17, 1-[6-[4-(1,3-benzoxazol-5-yl)-1-methyl-5-(5-methyl-1H-indazol-4-yl)imidazol-2-yl]-2-azaspiro[3.3]heptan-2-yl]prop-2-en-1-one], for which the pIC50 was 5.00 to 6.00.

Turning to `C=CC(=O)N1CC2(CC(c3nc(-c4ccc5c(c4)OCCN5C)c(-c4c(C)ccc5[nH]ncc45)n3C)C2)C1` [Example 18, 1-[6-[1-methyl-4-(4-methyl-2,3-dihydro-1,4-benzoxazin-7-yl)-5-(5-methyl-1H-indazol-4-yl)imidazol-2-yl]-2-azaspiro[3.3]heptan-2-yl]prop-2-en-1-one], the pIC50 was not below 6.00.

In the case of `C=CC(=O)N1CC2(CC(c3nc(-c4ccc(OCC(=O)N(C)C)cc4)c(-c4c(C)ccc5[nH]ncc45)n3C)C2)C1` [Example 19, N,N-dimethyl-2-[4-[1-methyl-5-(5-methyl-1H-indazol-4-yl)-2-(2-prop-2-enoyl-2-azaspiro[3.3]heptan-6-yl)imidazol-4-yl]phenoxy]acetamide], the pIC50 is 5.00 to 6.00.

As for `C=CC(=O)N1CC2(CC(c3nc(-c4ccc(OCC(=O)N5CCOCC5)cc4)c(-c4c(C)ccc5[nH]ncc45)n3C)C2)C1` [Example 20, 1-[6-[1-methyl-5-(5-methyl-1H-indazol-4-yl)-4-[4-(2-morpholino-2-oxo-ethoxy)phenyl]imidazol-2-yl]-2-azaspiro[3.3]heptan-2-yl]prop-2-en-1-one], the negative logarithm of the IC50 (pIC50) was 5.00 to 6.00.

As for `C=CC(=O)N1CC2(CC(c3nc(-c4ccc(C(=O)NCCN(C)C)cc4)c(-c4c(C)ccc5[nH]ncc45)n3C)C2)C1` [Example 22, N-[2-(dimethylamino)ethyl]-4-[1-methyl-5-(5-methyl-1H-indazol-4-yl)-2-(2-prop-2-enoyl-2-azaspiro[3.3]heptan-6-yl)imidazol-4-yl]benzamide], the pIC50 was 5.00 to 6.00.

`C=CC(=O)N1CC2(CC(c3nc(-c4ccc(C(=O)NCC(F)(F)F)c(OC)c4)c(-c4c(C)ccc5[nH]ncc45)n3C)C2)C1` [Example 23, 2-methoxy-4-[1-methyl-5-(5-methyl-1H-indazol-4-yl)-2-(2-prop-2-enoyl-2-azaspiro[3.3]heptan-6-yl)95midazole-4-yl]-N-(2,2,2-trifluoroethyl)benzamide]: the pIC50 was 5.00 to 6.00.

Consider `C=CC(=O)N1CC2(CC(c3nc(-c4ccc5c(cnn5C)c4)c(-c4c(C)ccc5[nH]ncc45)n3CC)C2)C1` [Example 24, 1-[6-[1-ethyl-4-(1-methylindazol-5-yl)-5-(5-methyl-1H-indazol-4-yl)imidazol-2-yl]-2-azaspiro[3.3]heptan-2-yl]prop-2-en-1-one], for which the pIC50 is not below 6.00.

On to `C=CC(=O)N1CC2(CC(c3nc(-c4c(C)ccc5[nH]ncc45)c(-c4ccc5c(cnn5C)c4)n3C)C2)C1` [Example 25, 1-[6-[1-methyl-5-(1-methylindazol-5-yl)-4-(5-methyl-1H-indazol-4-yl)imidazol-2-yl]-2-azaspiro[3.3]heptan-2-yl]prop-2-en-1-one], for which the pIC50 was not above 5.00.

Regarding `C=CC(=O)N1CC2(CC(c3nc(-c4ccc5c(cnn5C)c4)c(-c4cc(O)cc5ccccc45)n3C)C2)C1` [Example 26, 1-[6-[5-(3-hydroxy-1-naphthyl)-1-methyl-4-(1-methylindazol-5-yl)imidazol-2-yl]-2-azaspiro[3.3]heptan-2-yl]prop-2-en-1-one], the pIC50 is not below 6.00.
